Reference: patent US20090047246A1, “NOVEL INHIBITORS OF HEPATITIS C VIRUS REPLICATION” (InterMune, Inc., priority 2007, published 2009)

target: T1, HCV NS3 helicase (Hepatitis C virus genotype 1b, UniProt P26663); test: HCV Helicase Prompt FRET Assay (Example A); format: biochemical; conditions: HCV NS3 helicase; tables do not say whether Example A or Example B assay; read-out: IC50 Activity
T1 construct: full-length NS3 (1-631), purified at Array BioPharma
In short: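 Initial unwinding rates, monitored as FAM fluorescence gain (ex 485, em 535) over ~30 min at room temperature, gave IC50 via 4- or 5-parameter logistic fits. Reactions: 50 nM quenched duplex, 250 nM capture strand, 300 μM ATP, 5–6 nM NS3 1-631 after 5 min compound preincubation, MOPS pH 7.0 buffer, 2% DMSO.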

T1 sequence (P26663 1027-1657): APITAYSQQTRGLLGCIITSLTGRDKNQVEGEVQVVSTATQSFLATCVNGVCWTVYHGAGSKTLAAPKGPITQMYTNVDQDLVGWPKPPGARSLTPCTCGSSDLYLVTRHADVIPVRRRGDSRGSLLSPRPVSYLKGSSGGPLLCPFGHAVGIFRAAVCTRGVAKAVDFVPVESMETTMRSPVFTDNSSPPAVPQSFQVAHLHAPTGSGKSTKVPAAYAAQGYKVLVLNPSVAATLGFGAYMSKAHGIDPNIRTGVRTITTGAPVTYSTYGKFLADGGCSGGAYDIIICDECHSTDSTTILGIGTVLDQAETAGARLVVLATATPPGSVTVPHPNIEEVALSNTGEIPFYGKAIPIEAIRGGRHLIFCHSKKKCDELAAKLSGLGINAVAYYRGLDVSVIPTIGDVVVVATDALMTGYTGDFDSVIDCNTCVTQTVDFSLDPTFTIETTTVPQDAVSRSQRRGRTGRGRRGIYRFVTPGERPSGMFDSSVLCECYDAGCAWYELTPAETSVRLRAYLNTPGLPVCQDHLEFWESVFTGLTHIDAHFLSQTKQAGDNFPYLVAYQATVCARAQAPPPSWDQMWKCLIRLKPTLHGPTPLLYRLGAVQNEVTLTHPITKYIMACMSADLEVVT

IC50 [µM] | Compound
< 10 | O=S(=O)(NCc1ccc2c(c1)c(Cc1nn[nH]n1)cn2Cc1csc2ccc(Cl)cc12)c1ccccc1 [Example 210]
< 10 | O=C(O)Cc1cn(Cc2cccc(Oc3ccc(F)c(F)c3)c2)c2ccccc12 [Example 484]
10 to 50 | CC(=O)NC(C(=O)O)c1cn(Cc2ccc(C(C)C)cc2)c2ccccc12 (stereo not shown) [Example 420]
10 to 50 | CCN(c1cccc(Cn2cc(CC(=O)O)c3ccccc32)c1)c1ccccc1C(F)(F)F [Example 553]
10 to 50 | O=C(O)Cc1cn(Cc2ccc(Cl)c(Cl)c2)c2ccc(Br)cc12 [Example 110]
< 10 | O=C(O)Cc1cn(Cc2cccc(Oc3ccccc3Cl)c2)c2ccccc12 [Example 475]
< 10 | CN(Cc1ccccc1)c1ccc(-n2cc(C(O)(C(=O)O)C(F)(F)F)c3ccccc32)cc1 (stereo not shown) [Example 425]
< 10 | CC(C)c1ccc(Cn2c(C(=O)NCc3cccc(-c4ccccc4)c3)c(CC(=O)O)c3cc(Br)ccc32)cc1 [Example 445]
< 10 | O=C(O)Cc1cn(Cc2cccc(Oc3ccccc3)c2)c2ccc(OCc3ccccc3)cc12 [Example 115]
< 10 | CC(C)c1cccc(-c2cccc(Cc3[nH]c4ccccc4c3CC(=O)O)c2)c1 [Example 302]
< 10 | O=C(O)Cc1cn(Cc2ccc(Oc3cccc(Cl)c3Cl)cc2)c2ccccc12 [Example 588]
< 10 | COc1ccc(N(C)c2cccc(Cn3cc(CC(=O)O)c4ccccc43)c2)c(OC)c1 [Example 542]
10 to 50 | Cc1cc(NC(=O)Cc2ccccc2)ccc1-n1cc(CC(=O)O)c2ccccc21 [Example 156]
< 10 | CCN(c1cccc(Cn2cc(CC(=O)O)c3ccccc32)c1)c1ccccc1Cl [Example 552]
< 10 | O=C(O)Cc1c(C(=O)c2cccc(-c3cc(Cl)cc(Cl)c3)c2)oc2ccccc12 [Example 244]
< 10 | Cn1c(Cc2csc3ccc(Cl)cc23)c(CC(=O)O)c2ccc(OCc3ccccc3)cc21 [Example 368]
< 10 | Cc1ccc(-c2ccc(C(=O)c3[nH]c4ccccc4c3CC(=O)O)cc2)cc1Cl [Example 267]
10 to 50 | O=C(O)Cc1cn(Cc2csc3ccc(Cl)cc23)c2cc(-c3cccnc3)ccc12 [Example 743]
10 to 50 | CC(C)c1ccc(Cn2c(C(=O)NCCc3ccccn3)c(CC(=O)O)c3ccccc32)cc1 [Example 439]
< 10 | CC(C)c1cccc(-c2cccc(C(=O)c3oc4ccccc4c3CC(=O)O)c2)c1 [Example 245]
10 to 50 | O=C(Cc1cn(Cc2cccc(OCc3ccccc3)c2)c2ccc(OCc3ccccc3)cc12)N1CCCC1 [Example 189]
10 to 50 | O=C(O)Cc1cn(Cc2cccc(OCc3ccccc3)c2)c2ccccc12 [Example 116]
< 10 | COc1cccc(Oc2ccc(Cn3cc(CC(=O)O)c4ccccc43)cc2)c1OC [Example 509]

IC50 [µM] | Compound
< 10 | O=C(O)Cc1c(Cc2ccc(-c3ccccc3Cl)cc2)[nH]c2ccc(Br)cc12 [Example 294]
10 to 50 | CN(Cc1ccccc1)c1ccc(-n2c(C(=O)c3ccc(-c4ccc(Cl)c(Cl)c4)cc3)c(CC(=O)O)c3ccccc32)cc1 [Example 738]
> 50 | CCOC(=O)Cc1cn(Cc2cccc(N(C)c3ccc(Cl)c(Cl)c3)c2)c2ccccc12 [Example 550]
< 10 | COc1cccc(Oc2cccc(Cn3cc(CC(=O)O)c4ccccc43)c2)c1OC [Example 488]
10 to 50 | CC(C)c1ccc(Cn2cc(CC(=O)O)c3cc(OCc4ccccc4)ccc32)cc1 [Example 114]
10 to 50 | CC(C)c1ccc(Cn2c(C(=O)NC3CCNCC3)c(CC(=O)O)c3cc(Br)ccc32)cc1 [Example 438]
< 10 | COc1ccc(OC)c(Oc2ccc(Cn3cc(CC(=O)O)c4ccccc43)cc2)c1 [Example 510]
< 10 | O=C(O)Cc1cn(Cc2cccc(Oc3cccc(Cl)c3)c2)c2ccccc12 [Example 476]
< 10 | COc1ccc(Oc2cccc(Cn3cc(CC(=O)O)c4ccccc43)c2)cc1 [Example 480]
10 to 50 | CCCN(Cc1ccccc1)c1ccc(-n2cc(CC(=O)O)c3ccccc32)cc1 [Example 170]
< 10 | CC(C)N(c1cccc(Cn2cc(CC(=O)O)c3ccccc32)c1)c1ccccc1Cl [Example 554]
10 to 50 | O=C(NS(=O)(=O)C1CC1)c1cn(Cc2csc3ccc(Cl)cc23)c2ccccc12 [Example 196]
> 50 | COC(=O)C(Cc1ccccc1)c1cn(Cc2ccc(C(C)C)cc2)c2ccc(Br)cc12 (stereo not shown) [Example 409]
< 10 | O=C(O)Cc1cn(Cc2ccc(Oc3ccc(F)c(F)c3)cc2)c2ccccc12 [Example 505]
< 10 | O=C(O)Cc1cn(Cc2ccc(Oc3cc(F)cc(F)c3)cc2)c2ccccc12 [Example 506]
10 to 50 | O=C(O)Cc1cn(Cc2ccccc2C(F)(F)F)c2ccc(Br)cc12 [Example 103]
10 to 50 | CC(C)c1ccc(Cn2cc(CC(=O)O)c3cc(Br)ccc32)cc1 [Example 102]
10 to 50 | Cc1cc(-c2cccc(Cn3cc(CC(=O)O)c4cc(OCc5ccccc5)ccc43)c2)on1 [Example 124]
< 10 | O=C(Cc1cn(Cc2cccc(OCc3ccccc3)c2)c2ccc(OCc3ccccc3)cc12)NS(=O)(=O)C1CC1 [Example 194]
10 to 50 | Cn1c(Cc2ccc(-c3ccccc3)cc2)c(CC(=O)O)c2ccccc21 [Example 276]
< 10 | CN(c1cccc(Cn2cc(CC(=O)O)c3ccccc32)c1)c1cc(C(F)(F)F)ccc1C(F)(F)F [Example 546]
< 10 | O=C(NCc1ccc2c(c1)c(Cc1nn[nH]n1)cn2Cc1csc2ccc(Cl)cc12)OCc1ccccc1 [Example 207]
10 to 50 | CCOc1ccc2scc(Cn3cc(CC(=O)O)c4ccccc43)c2c1 [Example 142]

Compound | IC50 [µM]
O=C(O)Cc1c(Cc2csc3ccc(Cl)cc23)n(Cc2csc3ccc(Cl)cc23)c2cc(OCc3ccccc3)ccc12 [Example 348] | < 10

same assay, conditions: IC50 Activity, Table 38, compounds made using Scheme 56, Scheme 57 and Scheme 61

Compound | IC50 [µM]
CCOC(=O)Cc1cn(C(=O)c2csc3ccc(Cl)cc23)c2cc(-c3cc([N+](=O)[O-])cc([N+](=O)[O-])c3)ccc12 [Example 795] | > 50

same assay, conditions: Table 21, compounds made using Scheme 28; read-out: IC50 Activity

IC50 [µM] | Compound
< 10 | CN(c1ccc(Cn2cc(CC(=O)O)c3ccccc32)cc1)c1cc(Cl)ccc1Cl [Example 574]
10 to 50 | CN(c1ccc(Cn2cc(CC(=O)O)c3ccccc32)cc1)c1c(F)cccc1F [Example 571]
< 10 | CN(c1ccc(Cn2cc(CC(=O)O)c3ccccc32)cc1)c1cccc(Cl)c1 [Example 560]

same assay, conditions: Table 23, compounds made using Scheme 30; read-out: IC50 Activity

IC50 [µM] | Compound
10 to 50 | O=C(O)Cc1cn(Cc2cccc(Oc3c(Cl)cccc3Cl)c2)c2ccccc12 [Example 600]

same assay, conditions: Table 25, compounds made using Scheme 32; read-out: IC50 Activity

IC50 [µM] | Compound
10 to 50 | CCOC(=O)Cc1cn(Cc2ccc(Oc3cccc(OCC)c3)cc2)c2cc(-c3cc(N)cc(N)c3)ccc12 [Example 609]

same assay, conditions: Table 31, compounds made using Schemes 38-45; read-out: IC50 Activity

IC50 [µM] | Compound
< 10 | Cc1c(N)cc(N)cc1-c1ccc2c(CC(=O)O)cn(Cc3csc4ccc(Cl)cc34)c2c1 [Example 628]
10 to 50 | Nc1cc(-c2ccc3c(CC(=O)O)cn(Cc4csc5ccc(Cl)cc45)c3c2)cc(N)n1 [Example 638]
< 10 | CCNc1nc(NCC)nc(-c2ccc3c(CC(=O)O)cn(Cc4csc5ccc(Cl)cc45)c3c2)n1 [Example 632]
< 10 | CC(=O)Nc1cc(NC(C)=O)cc(-c2ccc3c(CC(=O)O)cn(Cc4csc5ccc(Cl)cc45)c3c2)c1 [Example 648]

same assay, conditions: Table 32, compounds made using Schemes 46-49; read-out: IC50 Activity

IC50 [µM] | Compound
10 to 50 | CC(C)c1ccc(Cn2c(C#N)c(CC(=O)O)c3ccccc32)cc1 [Example 664]

same assay, conditions: Table 34, compounds made using Schemes 51-52; read-out: IC50 Activity

IC50 [µM] | Compound
> 50 | COC(=O)C(=O)c1cn(Cc2csc3ccc(Cl)cc23)c2cc(Br)ccc12 [Example 693]
< 10 | CC(C)c1ccc(Cn2cc(C(Cc3ccccc3)C(=O)NO)c3cc(Br)ccc32)cc1 (stereo not shown) [Example 684]
< 10 | CC(C)c1ccc(Cn2cc(C(Cc3ccccc3)C(=O)NS(=O)(=O)C3CC3)c3cc(Br)ccc32)cc1 (stereo not shown) [Example 686]
10 to 50 | Nc1cc(-c2ccc3c(CC(=O)NO)cn(Cc4csc5ccc(Cl)cc45)c3c2)cc([N+](=O)[O-])c1 [Example 691]
> 50 | Nc1cc(-c2ccc3c(CC(=O)NOCc4ccccc4)cn(Cc4csc5ccc(Cl)cc45)c3c2)cc([N+](=O)[O-])c1 [Example 689]

same assay, conditions: Table 35, compounds made using Scheme 53; read-out: IC50 Activity

IC50 [µM] | Compound
< 10 | Nc1cc(N)cc(-c2ccc3c(CC(=O)O)cn(Cc4csc5ccc(F)cc45)c3c2)c1 [Example 705]
10 to 50 | N#Cc1ccc2scc(Cn3cc(CC(=O)O)c4ccc(-c5cc(N)cc(N)c5)cc43)c2c1 [Example 703]
10 to 50 | Nc1cc(N)cc(-c2ccc3c(CC(=O)O)cn(Cc4cccc(-c5cccc(Cl)c5)c4)c3c2)c1 [Example 709]

same assay, conditions: Table 36, compounds made using Scheme 54; read-out: IC50 Activity

IC50 [µM] | Compound
10 to 50 | Cc1sc2ccc(Cl)cc2c1Cn1cc(CC(=O)O)c2ccc(Br)cc21 [Example 777]

same assay, conditions: Table 37, compounds made using Scheme 55; read-out: IC50 Activity

IC50 [µM] | Compound
10 to 50 | CC(=O)Nc1cccc(-c2ccc3c(CC(=O)O)cn(Cc4csc5ccc(Cl)cc45)c3c2)c1 [Example 766]
10 to 50 | NC(=O)c1cccc(-c2ccc3c(CC(=O)O)cn(Cc4csc5ccc(Cl)cc45)c3c2)c1 [Example 763]

same assay, conditions: Table 38, compounds made using Scheme 56, Scheme 57 and Scheme 61; read-out: IC50 Activity

Compound | IC50 [µM]
CC(C)(C)OC(=O)N(c1cc(Cl)cc2c(Cn3cc(CC(=O)O)c4ccc(Br)cc43)csc12)C1CC1 [Example 774] | < 10
